Each structure is given as a SMILES string. Where only a bound is given, the exact number is not on record here.

For assay [1], the target named is T1, Neuraminidase (Influenza A virus, UniProt B4URF0). As to the kind of experiment: Inhibition of influenza A virus H9N2 Neuraminidase using 4-methylumbelliferyl-alpha-D-N-acetylneuraminic acid sodium salt hydrate substrate.
Assay [2] addresses T1, Neuraminidase. The assay can be described thus: Non-competitive inhibition of influenza A virus H1N1 Neuraminidase using 4-methylumbelliferyl-alpha-D-N-acetylneuraminic acid sodium salt hydrate substrate by Lineweaver burk plot.
Assay [3] deals with T1, Neuraminidase. As to the kind of experiment: Inhibition of influenza A virus H1N1 Neuraminidase using 4-methylumbelliferyl-alpha-D-N-acetylneuraminic acid sodium salt hydrate substrate.

Usually IC50 stands for the concentration needed to halve the response being measured. As usually defined, the Ki is a dissociation constant, usually derived from enzyme kinetics or from competition with a known ligand. Consider `COc1ccc(/C(C=O)=C\c2ccc(O)cc2OC)c(O)c1` [ERYTHRADDISON B], for which the IC50 at Neuraminidase [1] was 23.9 µM; at Neuraminidase [3], 29.3 µM. Moreover, at Neuraminidase [2], the Ki is 32.7 µM.

Regarding `CC(C)=CCc1c(O)cc2occ(-c3ccc(O)cc3)c(=O)c2c1O` [WIGHTEONE], the IC50 at Neuraminidase [1] and on Neuraminidase [3] was greater than 148 µM throughout.

For the compound `C=C(C)C(O)CC1=c2occ(-c3ccc(O)cc3)c(=O)c2=C(O)C2C=CC(C)(C)OC12` (configuration not stated) [ERYSENEGALENSEIN], the IC50 on Neuraminidase [1] and on Neuraminidase [3] was greater than 118 µM in each case.

As for `CC(C)=CCc1cc(/C=C/C(=O)c2ccc(O)cc2O)ccc1O` [LICOAGROCHALCONE A], the results for the IC50 at Neuraminidase [1] and on Neuraminidase [3] were 61.7 µM and 66.3 µM, respectively. The inhibitory constant (Ki) at Neuraminidase [2] was 68.9 µM.

Turning to `CC(C)=CCc1cc(-c2coc3cc(O)cc(O)c3c2=O)ccc1O` [CORYLIN], the concentration for half-maximal inhibition (IC50) on Neuraminidase [1] and at Neuraminidase [3] was greater than 148 µM in each case.

In the case of `CC(C)=CCc1cc(/C=C/C(=O)c2ccc(O)cc2O)cc(O)c1O` [5'-PRENYLBUTEIN], the IC50 at Neuraminidase [1] was 60.1 µM; on Neuraminidase [3], 64.4 µM. Further, the Ki at Neuraminidase [2] was 66.7 µM.

Regarding `CC(C)=CCc1cc(/C=C/C(=O)c2ccc(O)cc2O)cc(CC=C(C)C)c1O` [ABYSSINONE VI], the IC50 on Neuraminidase [1] is 62.6 µM; at Neuraminidase [3] it was 67.4 µM. For the same compound, the Ki on Neuraminidase [2] is 70 µM.

As for `CC1(C)C=Cc2cc(-c3coc4cc(O)ccc4c3=O)ccc2O1` [ISOWIGHTEONE], the IC50 on Neuraminidase [1] and at Neuraminidase [3] was greater than 156 µM throughout.

For `CC1(C)C=Cc2c(c(CO)c3occ(-c4ccc(O)cc4)c(=O)c3c2O)O1` [ERYTHRADDISON A], the IC50 at Neuraminidase [1] and on Neuraminidase [3] was greater than 136 µM throughout.

Values taken from ChEMBL document CHEMBL1268991, “New stilbenoid with inhibitory activity on viral neuraminidases from Erythrina addisoniae” (Bioorg Med Chem Lett, 2010).
